What was measured:
clear cell aRCC = settings: cited from earlier work; for median PFS (mPFS): previously untreated patients with clear cell aRCC, axitinib 5 mg BID, single agent
human PBMC = assay: Cytokine release, standard human PBMC in vitro test; assay type: cell-based
Text: The combination of avelumab plus anti-4-1BB antibody PF-05082566 and anti-OX40 antibody PF-04518600 has been evaluated for cytokine release using the standard human PBMC in vitro test. The cytokine release assay was completed for PF-05082566 alone and in combination with avelumab and PF-04518600.

CNC(=O)c1ccccc1Sc1ccc2c(/C=C/c3ccccn3)n[nH]c2c1 [axitinib, N-methyl-2-[3-((E)-2-pyridin-2-yl-vinyl)-1H-indazol-6-ylsulfanyl]-benzamide]
stratified hazard ratio (PFS) (clear cell aRCC; axitinib vs. sorafenib, 95% CI 0.56, 1.05): 0.77
median PFS (mPFS) (clear cell aRCC): 10.1 months

CNC(=O)c1cc(Oc2ccc(NC(=O)Nc3ccc(Cl)c(C(F)(F)F)c3)cc2)ccn1 [sorafenib]
median PFS (mPFS) (clear cell aRCC): 6.5 months

PF-05082566: novel fully human IgG2 monoclonal antibody agonist of 4-1BB
cytokine release (human PBMC): did not show a significant increase in cytokine release
